From ChEMBL document CHEMBL1201862, “PubChem BioAssay data set” (2004) come the findings set out here.

Each structure is given as a SMILES string.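 Following 48 hours of exposure in 96-well plates, responses at five concentrations were used to interpolate endpoints linearly. At the GI50, growth is halved.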 Activity calls are given as the source filed them. Cut-off read from the data, not from the text of the source: active = GI50 up to about 1.1 µM and inactive = higher. Where only a bound is given, the exact number is not on record here.

Common to all, as to assay: NCI-60 cell line screen, 48 h
Assay [1] relates to SK-MEL-5.
In assay [2] the test system is MCF7.
In assay [3] the test system is SF-539.
Assay [4] deals with SNB-75.
Assay [5] relates to EKVX.
Assay [6] relates to MDA-MB-435.
Assay [7] concerns OVCAR-3.
Assay [8] deals with HT-29.
The test system of assay [9] is SW-620.
Assay [10] deals with NCI/ADR-RES.
Assay [11] has as its system COLO 205.
Assay [12] has as its system NCI-H226.
The subject of assay [13] is IGROV-1.
Assay [14] concerns HCT-15.
Assay [15] has as its system SN12C.
In assay [16] the test system is OVCAR-4.
Assay [17] deals with HCC 2998.
Assay [18] deals with M14.
Assay [19] has as its system UACC-62.

In the case of `C=CCc1c(O)c2ccccc2[nH]c1=O`, the GI50 in assay [1], in assay [2], in [3], in [4], in assay [5] and in assay [6] was > 100 µM (inactive) in each case. Moreover, the GI50 in assay [7], in assay [8], in assay [9], in assay [10], in assay [11] and in assay [12] was > 100 µM (inactive) each time. Further, the GI50 in assay [13] is > 100 µM (inactive); in [14] it was greater than 100 µM; in assay [15] it was > 100 µM (inactive); in assay [16], > 100 µM (inactive); in assay [17], > 100 µM (inactive).
For the compound `O=C1/C(=C\c2cccc(Oc3ccccc3)c2)SC(c2ccccc2)N1c1ccc(Cl)cc1` (stereo not given), the GI50 was 4.79 µM (inactive) in assay [1]; 16.3 µM (inactive) in assay [2]; 21.3 µM (inactive) in assay [3]; 90.4 µM (inactive) in [4]; 80.7 µM (inactive) in [5]; 2.24 µM (inactive) in assay [6]. Moreover, the GI50 in [7] was 41.4 µM (inactive); in assay [8], 30.8 µM (inactive); in assay [9] it was 27.7 µM (inactive); in assay [10] it was 21.4 µM (inactive); in assay [18], 3.17 µM (inactive); in assay [11] it was 11.2 µM (inactive). The GI50 in assay [12] was > 100 µM (inactive); in [19] it was 9.04 µM (inactive); in [14], 7.55 µM; in assay [15], 26.7 µM (inactive); in [16] it was 17.4 µM (inactive); in assay [17], 87.5 µM (inactive).
With `Cc1ccc(S(=O)(=O)NC2=NS(=O)(=O)c3cc(C)c(Cl)cc3S2)cc1`, the GI50 is > 100 µM (inactive) in assay [1]; 85.3 µM (inactive) in assay [2]; 58.3 µM (inactive) in assay [3]; > 100 µM (inactive) in assay [4]; > 100 µM (inactive) in assay [5]; > 100 µM (inactive) in assay [6]. Further, the GI50 in [7] is > 100 µM (inactive); in assay [8], > 100 µM (inactive); in [9], 71.6 µM (inactive); in assay [10], > 100 µM (inactive); in [18], 81.8 µM (inactive); in [11] it was > 100 µM (inactive). The GI50 in [12] was > 100 µM (inactive); in assay [13], > 100 µM (inactive); in assay [19], > 100 µM (inactive); in [14] it was greater than 100 µM; in assay [15], > 100 µM (inactive); in [16] it was > 100 µM (inactive). For the same compound, the GI50 in [17] is 82.6 µM (inactive).
For the compound `CC1=NN(c2nc(N)nc(/C(C#N)=C/c3ccncc3)n2)C(C)(C)C1`, the GI50 in assay [1] is > 100 µM (inactive); in [2] it was 91.8 µM (inactive); in [3] it was > 100 µM (inactive); in [4], > 100 µM (inactive); in [5] it was > 100 µM (inactive); in assay [6], > 100 µM (inactive). The GI50 in assay [8], in assay [9], in assay [10], in assay [18], in assay [11] and in assay [12] was > 100 µM (inactive) throughout. Besides, the GI50 in assay [13] is > 100 µM (inactive); in assay [19], > 100 µM (inactive); in [14] it was greater than 100 µM; in assay [16] it was > 100 µM (inactive); in assay [17], > 100 µM (inactive).
For the compound `COc1ccc(-c2c(C#N)c(-c3ccccc3)n(NS(=O)(=O)c3ccccc3)c(=O)c2C#N)cc1`, the GI50 is 55.1 µM (inactive) in assay [1]; 50.5 µM (inactive) in [2]; 90.6 µM (inactive) in assay [3]; 50.8 µM (inactive) in [4]; > 100 µM (inactive) in assay [5]; > 100 µM (inactive) in assay [6]. Further, the GI50 was > 100 µM (inactive) in assay [8]; > 100 µM (inactive) in assay [9]; 53.3 µM (inactive) in assay [10]; > 100 µM (inactive) in assay [18]; > 100 µM (inactive) in assay [11]; > 100 µM (inactive) in assay [12]. Besides, the GI50 in [13] was 36.3 µM (inactive); in assay [19] it was 79.8 µM (inactive); in assay [14] it was greater than 100 µM; in assay [15], > 100 µM (inactive); in assay [16] it was > 100 µM (inactive); in assay [17], 81.5 µM (inactive).
For `COc1cc(/C=C2\NC(=O)N(/C=C3\C(=O)Oc4ccccc4C3=O)C2=O)ccc1O`, the GI50 in [1] was 41 µM (inactive); in assay [2], > 100 µM (inactive); in assay [3], 63.1 µM (inactive); in assay [4] it was 13.8 µM (inactive); in assay [5] it was > 100 µM (inactive); in [6], > 100 µM (inactive). The GI50 in assay [8] is 54.5 µM (inactive); in assay [9], > 100 µM (inactive); in assay [10], > 100 µM (inactive); in [18] it was 99.3 µM (inactive); in assay [11] it was 78.2 µM (inactive); in assay [12], > 100 µM (inactive). Besides, the GI50 in assay [13] is 62.7 µM (inactive); in assay [19], 49 µM (inactive); in assay [14], 39.3 µM; in [15] it was 54.3 µM (inactive); in assay [16], 91.8 µM (inactive); in assay [17], 41.2 µM (inactive).
For the compound `C/C=C\C(CC(=O)OC)CC(=O)N(CCC1CN(S(=O)(=O)C(F)(F)F)c2ccccc21)Cc1ccc(OC)cc1OC` (stereo not given), the GI50 in [1] was > 100 µM (inactive); in assay [2] it was > 100 µM (inactive); in assay [3], > 100 µM (inactive); in assay [4], > 100 µM (inactive); in assay [5], > 100 µM (inactive); in [6] it was 35.7 µM (inactive). Moreover, the GI50 in assay [7], in assay [9], in [10], in assay [18], in [11] and in assay [12] was > 100 µM (inactive) in each case. For the same compound, the GI50 in assay [13] is > 100 µM (inactive); in [14] it was greater than 100 µM; in assay [15] it was > 100 µM (inactive); in assay [16], 54.7 µM (inactive); in [17], > 100 µM (inactive).
For the compound `O=C1c2ccccc2C(=O)N1CCCCCCNOCCCN1C(=O)c2ccccc2C1=O`, the GI50 in assay [1] was 15.4 µM (inactive); in [2] it was 35.3 µM (inactive); in assay [4], 25.1 µM (inactive); in [5] it was 25.6 µM (inactive); in [6], 25.2 µM (inactive); in [7], 23.7 µM (inactive). The GI50 in [8] was 36.6 µM (inactive); in assay [9] it was > 100 µM (inactive); in assay [10], 26.4 µM (inactive); in assay [18], 21.3 µM (inactive); in assay [11], 38.7 µM (inactive); in [12], > 100 µM (inactive). The GI50 in [13] is 90.6 µM (inactive); in assay [19] it was 19.5 µM (inactive); in assay [14], 40.2 µM; in assay [15] it was > 100 µM (inactive); in assay [16] it was 22.3 µM (inactive); in [17], > 100 µM (inactive).
Turning to `C[C@@H](NC(=O)Nc1cccc(C(=O)Nc2cc(C(C)(C)C)ccc2C(=O)O)n1)c1ccccc1`, the GI50 in assay [1] was 30.1 µM (inactive); in assay [2], 16.4 µM (inactive); in assay [4], 32.1 µM (inactive); in assay [5] it was 52.5 µM (inactive); in assay [6] it was 37.3 µM (inactive); in [7], 21.4 µM (inactive). The GI50 is 35.5 µM (inactive) in [8]; 39 µM (inactive) in assay [9]; > 100 µM (inactive) in [10]; 31 µM (inactive) in assay [18]; 27.3 µM (inactive) in [11]; 38.3 µM (inactive) in assay [12]. Besides, the GI50 was 37.9 µM (inactive) in [13]; 19.7 µM (inactive) in assay [19]; 44.2 µM in [14]; 49.8 µM (inactive) in assay [15]; 50.1 µM (inactive) in assay [16]; 50.8 µM (inactive) in assay [17].
In the case of `COc1ccc(CC/N=C2\OCc3ccccc32)cc1OC`, the GI50 in assay [1] was 43.3 µM (inactive); in assay [2], 27.7 µM (inactive); in [3] it was 20.7 µM (inactive); in [4], 68.2 µM (inactive); in assay [5], 76.2 µM (inactive); in assay [6], 43.2 µM (inactive). Moreover, the GI50 in assay [8] was 32.1 µM (inactive); in assay [9], 54.5 µM (inactive); in assay [10], 67 µM (inactive); in [11] it was 49.3 µM (inactive); in assay [12], 51.3 µM (inactive); in assay [13], 67 µM (inactive). Moreover, the GI50 is 29.2 µM (inactive) in [19]; 38.8 µM in assay [14]; 69.3 µM (inactive) in [15]; 59 µM (inactive) in assay [16]; > 100 µM (inactive) in [17].
For the compound `NS(=O)(=O)c1c(O)c2ccccc2oc1=O`, the GI50 in assay [1], in [2], in assay [3], in assay [4], in assay [5] and in assay [6] was > 100 µM (inactive) in each case. For the same compound, the GI50 in assay [7], in [8], in [9], in assay [10], in assay [18] and in [11] was > 100 µM (inactive) throughout. Besides, the GI50 in assay [12], in assay [13], in [19], in assay [15], in assay [16] and in assay [17] was > 100 µM (inactive) in each case.
